Counter-ions that a name gives are not always drawn.
Experiment: Equilibrium solubility of ziprasidone salts in 40% (w/v) aqueous SBECD
Conditions: 40% SBECD
Text: Many different experimental protocols can be envisioned and implemented.

O=C1Cc2cc(CCN3CCN(c4nsc5ccccc45)CC3)c(Cl)cc2N1 [mesylate, Ziprasidone Mesylate]
Rank of solubility among salt candidates and cyclodextrin solutions tested: highest solubility
